Experiment [1] has as its system LPS triggered IL-10 secretion in monocyte-derived macrophages (MdM). As to the kind of experiment: MdM assay: LPS-triggered IL-10 (ELISA). To be noted: maximal fold change vs LPS only, median across assays. Type of experiment: cell-based, human. The method, boiled down: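 CD14+ monocytes isolated from human buffy-coat PBMCs and differentiated to macrophages for 10 days. Cells pre-treated with compound 1 h at 37° C (0.2% DMSO), then stimulated with 200 ng/mL LPS; IL-10 in supernatant at 2 h measured by ELISA (A450). Maximal fold change versus LPS only reported as median of two or more runs.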
On the technique in general: In an ELISA, binding on a coated surface is turned into a signal by an enzyme label.

For experiment [2], the target named is T1, SIK2 (Homo sapiens, UniProt Q9H0K1).
T1 construct: purchased ThermoFisher Scientific PV4792
T1 sequence (Q9H0K1 whole entry): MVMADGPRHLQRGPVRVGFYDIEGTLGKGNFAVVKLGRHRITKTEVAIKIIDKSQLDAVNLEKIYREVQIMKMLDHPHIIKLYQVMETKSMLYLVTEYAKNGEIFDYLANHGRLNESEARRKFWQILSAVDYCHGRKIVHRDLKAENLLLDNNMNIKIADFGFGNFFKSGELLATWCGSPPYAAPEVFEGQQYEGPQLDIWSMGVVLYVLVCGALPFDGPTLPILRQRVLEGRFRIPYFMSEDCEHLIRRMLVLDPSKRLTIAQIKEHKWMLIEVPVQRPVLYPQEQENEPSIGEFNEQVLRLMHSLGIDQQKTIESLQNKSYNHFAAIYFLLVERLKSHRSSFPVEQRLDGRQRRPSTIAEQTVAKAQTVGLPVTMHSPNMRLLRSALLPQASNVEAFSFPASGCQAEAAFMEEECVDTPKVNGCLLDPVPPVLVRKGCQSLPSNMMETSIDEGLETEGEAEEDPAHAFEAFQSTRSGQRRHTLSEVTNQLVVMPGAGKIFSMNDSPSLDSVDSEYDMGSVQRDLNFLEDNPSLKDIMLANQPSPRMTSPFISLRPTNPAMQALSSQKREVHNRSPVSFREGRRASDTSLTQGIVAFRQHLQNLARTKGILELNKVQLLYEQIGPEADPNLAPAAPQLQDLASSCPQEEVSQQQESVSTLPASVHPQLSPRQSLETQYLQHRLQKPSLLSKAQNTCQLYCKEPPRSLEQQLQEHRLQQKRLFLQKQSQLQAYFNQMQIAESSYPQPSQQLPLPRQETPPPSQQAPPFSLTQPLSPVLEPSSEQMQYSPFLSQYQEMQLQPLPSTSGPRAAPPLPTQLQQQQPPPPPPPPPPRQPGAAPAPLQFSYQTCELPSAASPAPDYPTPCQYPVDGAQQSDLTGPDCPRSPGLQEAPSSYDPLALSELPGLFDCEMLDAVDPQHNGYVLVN
Put plainly: biochemical. To be noted: ADP-Glo SIK kinase assay. The method, boiled down: (§1)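 ADP-Glo, RT throughout. Enz/substrate + ATP, 120 min; ADP-Glo reagent 40 min (ATP depletion); detection reagent 30 min; luminescence read. Neg ctrl 1% DMSO, pos ctrl 10 μM staurosporine, final concs.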

Experiment [3] has as its target T2, SIK3 (Homo sapiens, UniProt Q9Y2K2).
T2 construct: purchased SignalChem S12-11G-100
Put plainly: biochemical. The conditions noted are these: ADP-Glo SIK kinase assay. The method, boiled down:
as §1
(ADP-Glo first removes unused ATP, then detects ADP through luciferase.)

Experiment [4] concerns the target T3, SIK1 (Homo sapiens, UniProt P57059).
T3 construct: purchased Carna Biosciences 02-131
As to the kind of experiment: biochemical. To be noted: ADP-Glo SIK kinase assay. The method, boiled down: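 Enzyme–substrate mix was started with ATP and incubated 120 min at RT. ADP formed was quantified by ADP-Glo: 40 min ATP depletion, then 30 min detection reagent converting ADP to ATP for luciferase luminescence, which rises with kinase activity. Controls: 1% DMSO and 10 μM staurosporine (final).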

In experiment [5] the test system is LPS-induced TNFα secretion in monocyte-derived macrophages (MdM). Put plainly: MdM assay: LPS-triggered TNFα (ELISA). To be noted: Homo sapiens, Macrophage, LPS-triggered TNFα inhibition. Type of experiment: cell-based, human. The method, boiled down: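 Human CD14+ monocytes isolated from buffy-coat PBMCs by magnetic beads, differentiated to macrophages; on day 10 compound preincubated 1 h at 37 °C, then LPS 200 ng/mL added (0.2% DMSO). Supernatant taken after 20 h; TNFα quantified by sandwich ELISA against standard curve.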

Experiment [6] has as its target T1, SIK2. Put plainly: biochemical. To be noted: 33P radioactive SIK kinase assay, AMARA peptide, 10 μM ATP. The method, boiled down:
(§2)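 Radiometric assay: SIK1, SIK2 or SIK3 phosphorylates AMARA peptide using unlabelled plus [^33P]-γ-ATP, reaction started by ATP addition. Stopped with 150 mM phosphoric acid, filter-harvested and washed; incorporated ^33P counted by scintillation. Controls: 1% DMSO and 10 μM staurosporine final.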

Experiment [7] addresses T2, SIK3. Put plainly: biochemical. The method, boiled down:
as §2

Experiment [8] has as its target T3, SIK1. Put plainly: biochemical. The conditions noted are these: 33P radioactive SIK kinase assay, AMARA peptide, 10 μM ATP; read-out: SIK1 IC50. The method, boiled down:
as §2

SMILES strings stand for the structures. Like-named read-outs stand apart in the source and are kept apart here.

T2 sequence (Q9Y2K2 whole entry): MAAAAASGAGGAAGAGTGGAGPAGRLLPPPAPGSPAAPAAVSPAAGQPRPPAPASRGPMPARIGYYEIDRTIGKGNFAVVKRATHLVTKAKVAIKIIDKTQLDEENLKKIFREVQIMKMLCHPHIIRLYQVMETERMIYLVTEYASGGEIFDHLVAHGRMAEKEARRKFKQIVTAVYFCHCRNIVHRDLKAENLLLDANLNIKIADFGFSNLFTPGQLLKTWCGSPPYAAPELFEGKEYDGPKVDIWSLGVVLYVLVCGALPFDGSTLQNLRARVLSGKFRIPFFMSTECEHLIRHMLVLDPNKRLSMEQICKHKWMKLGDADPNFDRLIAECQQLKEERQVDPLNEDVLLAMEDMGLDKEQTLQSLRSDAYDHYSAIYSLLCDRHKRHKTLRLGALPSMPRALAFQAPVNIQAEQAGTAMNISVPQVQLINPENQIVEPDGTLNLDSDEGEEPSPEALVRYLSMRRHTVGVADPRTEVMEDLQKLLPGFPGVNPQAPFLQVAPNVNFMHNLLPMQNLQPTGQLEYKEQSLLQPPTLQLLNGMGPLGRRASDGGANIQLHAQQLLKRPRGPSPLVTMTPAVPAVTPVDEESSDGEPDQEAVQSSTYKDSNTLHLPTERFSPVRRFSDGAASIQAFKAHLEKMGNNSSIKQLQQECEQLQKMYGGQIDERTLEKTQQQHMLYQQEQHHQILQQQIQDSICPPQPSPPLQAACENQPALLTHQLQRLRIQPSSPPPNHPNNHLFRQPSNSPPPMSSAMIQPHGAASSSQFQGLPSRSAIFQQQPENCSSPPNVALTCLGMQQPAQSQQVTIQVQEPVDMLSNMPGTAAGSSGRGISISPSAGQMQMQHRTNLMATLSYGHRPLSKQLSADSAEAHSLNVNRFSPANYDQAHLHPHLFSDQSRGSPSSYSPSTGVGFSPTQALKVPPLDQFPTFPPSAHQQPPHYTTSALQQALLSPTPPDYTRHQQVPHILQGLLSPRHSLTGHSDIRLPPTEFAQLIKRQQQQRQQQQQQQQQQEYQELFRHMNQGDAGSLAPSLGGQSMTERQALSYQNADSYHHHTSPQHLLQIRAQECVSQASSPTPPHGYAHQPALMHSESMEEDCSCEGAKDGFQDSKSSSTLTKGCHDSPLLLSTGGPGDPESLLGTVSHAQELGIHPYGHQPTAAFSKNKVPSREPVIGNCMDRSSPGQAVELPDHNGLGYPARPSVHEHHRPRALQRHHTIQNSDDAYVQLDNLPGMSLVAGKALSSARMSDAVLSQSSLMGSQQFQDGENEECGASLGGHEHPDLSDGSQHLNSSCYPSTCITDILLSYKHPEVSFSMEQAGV
T3 sequence (P57059 whole entry): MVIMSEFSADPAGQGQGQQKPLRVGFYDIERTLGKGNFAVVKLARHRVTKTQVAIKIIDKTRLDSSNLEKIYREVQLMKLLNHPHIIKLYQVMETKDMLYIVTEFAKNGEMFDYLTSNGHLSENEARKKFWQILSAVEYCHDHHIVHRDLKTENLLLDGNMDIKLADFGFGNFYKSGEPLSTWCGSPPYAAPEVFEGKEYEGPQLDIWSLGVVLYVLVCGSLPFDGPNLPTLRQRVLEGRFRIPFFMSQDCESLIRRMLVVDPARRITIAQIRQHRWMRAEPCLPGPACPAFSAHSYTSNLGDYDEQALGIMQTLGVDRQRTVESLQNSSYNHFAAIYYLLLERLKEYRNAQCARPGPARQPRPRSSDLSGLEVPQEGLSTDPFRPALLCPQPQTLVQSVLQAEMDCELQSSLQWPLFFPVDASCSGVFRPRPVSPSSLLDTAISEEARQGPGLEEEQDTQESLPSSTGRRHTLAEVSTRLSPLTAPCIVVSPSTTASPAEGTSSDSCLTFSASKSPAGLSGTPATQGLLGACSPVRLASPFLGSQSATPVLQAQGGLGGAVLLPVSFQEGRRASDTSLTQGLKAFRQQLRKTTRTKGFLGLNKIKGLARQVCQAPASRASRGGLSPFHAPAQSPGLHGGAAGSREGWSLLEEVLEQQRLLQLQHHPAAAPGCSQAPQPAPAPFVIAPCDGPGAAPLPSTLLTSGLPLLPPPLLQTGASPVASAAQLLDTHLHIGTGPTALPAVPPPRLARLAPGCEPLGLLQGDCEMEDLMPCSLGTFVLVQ

Regarding `COc1cc(-c2cnc3cc(-c4cn(C)cn4)ccn23)cc(OC)c1C(=O)N[C@H](C)C(F)(F)F` [compound 215, 2,6-dimethoxy-4-[7-(1-methylimidazol-4-yl)imidazo[1,2-a]pyridin-3-yl]-N-[(1R)-2,2,2-trifluoro-1-methyl-ethyl]benzamide], the “IL-10 FCmax median” value in experiment [1] was “++ (>1.5-4.5)”. Besides, the IC50 (in general, the midpoint of a concentration-inhibition curve) was in the range of 0.01 to 10 nM on SIK2 [2]; 0.01 to 10 nM on SIK3 [3]; 10 to 100 nM on SIK1 [4]; 0.01 to 10 nM on SIK2 [6]; 0.01 to 10 nM at SIK3 [7]; 10 to 100 nM at SIK1 [8]. Further, the EC50 (commonly the concentration that produces a half-maximal response) in experiment [5] is 100 to 1000 nM.
`CCOC(=O)Cn1cc(-c2ccn3c(-c4cc(OC)c(C(=O)NCC(F)(F)F)c(OC)c4)cnc3c2)cn1` [compound 230, ethyl 2-[4-[3-[3,5-dimethoxy-4-(2,2,2-trifluoroethyl-carbamoyl)phenyl]imidazo[1,2-a]pyridin-7-yl]pyrazol-1-yl]acetate]: the “IL-10 FCmax median” value in experiment [1] was “+++ (>4.5)”. Further, the IC50 against SIK2 [2], against SIK3 [3], on SIK1 [4], at SIK2 [6], against SIK3 [7] and on SIK1 [8] was 0.01 to 10 nM throughout. This molecule also had an EC50 in experiment [5] of 0.1 to 100 nM.
Turning to `COc1cc(-c2cnc3cc(-c4cnn(C)c4)ccn23)cc2c1C(=O)N(CC(F)(F)F)CC2` [Cpd 225, 8-methoxy-6-[7-(1-methylpyrazol-4-yl)imidazo[1,2-a]pyridin-3-yl]-2-(2,2,2-trifluoroethyl)-3,4-dihydroisoquinolin-1-one], the “IL-10 FCmax median” value in experiment [1] is listed as “++ (>1.5-4.5)”. In addition, the IC50 on SIK2 [2] was in the range of 0.01 to 10 nM; against SIK3 [3], 0.01 to 10 nM; on SIK1 [4], 0.01 to 10 nM; on SIK2 [6], 0.01 to 10 nM; against SIK3 [7], 0.01 to 10 nM; on SIK1 [8] it was 10 to 100 nM. Moreover, the EC50 in experiment [5] was in the range of 0.1 to 100 nM.
As for `CNc1cc(-c2cnc3cc(-c4cnn(C)c4)ccn23)cc(OC)c1C(=O)NCC(F)(F)F` [Cpd 204], the “IL-10 FCmax median” value in experiment [1] was “++ (>1.5-4.5)”. The half-inhibitory concentration (IC50) on SIK2 [2], against SIK3 [3], against SIK1 [4], on SIK2 [6], on SIK3 [7] and on SIK1 [8] was 0.01 to 10 nM in each case. This molecule also came in with an EC50 in experiment [5] of 0.1 to 100 nM.
Turning to `COc1cc(-n2cnc3cc(-c4cnn(C)c4)ccc32)cc(OC)c1C(=O)N1CC(F)(F)C1` [compound 142, (3,3-difluoroazetidin-1-yl)-[2,6-dimethoxy-4-[5-(1-methylpyrazol-4-yl)benzimidazol-1-yl]phenyl]methanone], in experiment [1], the “IL-10 FCmax median” value is “++ (>1.5-4.5)”. Further, the IC50 against SIK2 [2], on SIK3 [3], against SIK1 [4], on SIK2 [6], against SIK3 [7] and at SIK1 [8] was 10 to 100 nM throughout. Besides, in experiment [5], the EC50 lay within 100 to 1000 nM.
`COc1cc(-c2cnc3cc(-c4cnn(C)c4)ccn23)cc(OCCO)c1C(=O)NC1CC1` [compound 279, N-cyclopropyl-2-(2-hydroxyethoxy)-6-methoxy-4-[7-(1-methylpyrazol-4-yl)imidazo[1,2-a]pyridin-3-yl]benzamide]: in experiment [1], the “IL-10 FCmax median” value is recorded as “++ (>1.5-4.5)”. Also, the IC50 at SIK2 [2], on SIK3 [3] and on SIK1 [4] was 0.01 to 10 nM throughout. In experiment [5], this molecule gave an EC50 of 100 to 1000 nM.
For `COc1cc(-c2cnc3cc(-c4cnnc(C)c4)ccn23)cc(OC(F)F)c1C(=O)NC1CC1` [compound 272, N-cyclopropyl-2-(difluoromethoxy)-6-methoxy-4-[7-(6-methylpyridazin-4-yl)imidazo[1,2-a]pyridin-3-yl]benzamide], the “IL-10 FCmax median” value in experiment [1] is recorded as “++ (>1.5-4.5)”. The IC50 against SIK2 [2] was 0.01 to 10 nM; on SIK3 [3] it was 0.01 to 10 nM; against SIK1 [4], 10 to 100 nM. Further, in experiment [5], the EC50 fell in the range of 100 to 1000 nM.
For `CCOC(=O)C(C)n1cc(-c2ccn3c(-c4cc(OC)c(C(=O)NCC(F)(F)F)c(OC)c4)cnc3c2)cn1` (centres unmarked) [compound 263, ethyl 2-[4-[3-[3,5-dimethoxy-4-(2,2,2-trifluoroethyl-carbamoyl)phenyl]imidazo[1,2-a]pyridin-7-yl]pyrazol-1-yl]propanoate], in experiment [1], the “IL-10 FCmax median” value is on record as “++ (>1.5-4.5)”. For the same molecule, the IC50 on SIK2 [2], against SIK3 [3], at SIK1 [4], on SIK2 [6], on SIK3 [7] and on SIK1 [8] was 0.01 to 10 nM each time. In addition, in experiment [5], the EC50 lay within 0.1 to 100 nM.
With `COc1cc(-c2cnc3cc(-c4ccc(C)nn4)ccn23)cc2c1C(=O)N(CC(F)(F)F)CC2` [Cpd 275, 8-methoxy-6-[7-(6-methylpyridazin-3-yl)imidazo[1,2-a]pyridin-3-yl]-2-(2,2,2-trifluoroethyl)-3,4-dihydroisoquinolin-1-one], the “IL-10 FCmax median” value in experiment [1] is recorded as “++ (>1.5-4.5)”. Further, the half-inhibitory concentration (IC50) is 0.01 to 10 nM on SIK2 [2], 0.01 to 10 nM against SIK3 [3] and 10 to 100 nM against SIK1 [4]. In experiment [5], the EC50 was 0.1 to 100 nM.
For the molecule `COc1cc(-c2cnc3cc(-c4cnn(C)c4)ccn23)cc(OC)c1C(=O)NCC(F)F` [compound 133, N-(2,2-difluoroethyl)-2,6-dimethoxy-4-[7-(1-methylpyrazol-4-yl)imidazo[1,2-a]pyridin-3-yl]benzamide], the “IL-10 FCmax median” value in experiment [1] is on record as “++ (>1.5-4.5)”. Moreover, the IC50 at SIK2 [2], at SIK3 [3], on SIK1 [4], on SIK2 [6], against SIK3 [7] and on SIK1 [8] was 0.01 to 10 nM in each case. In addition, the EC50 in experiment [5] lay within 0.1 to 100 nM.
`CCOC(=O)C(C)Cn1cc(-c2ccn3c(-c4cc(OC)c(C(=O)NCC(F)(F)F)c(OC)c4)cnc3c2)cn1` (centres unmarked) [Cpd 293, ethyl 3-[4-[3-[3,5-dimethoxy-4-(2,2,2-trifluoroethyl-carbamoyl)phenyl]imidazo[1,2-a]pyridin-7-yl]pyrazol-1-yl]-2-methyl-propanoate]: the “IL-10 FCmax median” value in experiment [1] was “++ (>1.5-4.5)”. For the same molecule, the IC50 at SIK2 [2], against SIK3 [3] and against SIK1 [4] was 0.01 to 10 nM throughout. In experiment [5], this molecule displayed an EC50 of 0.1 to 100 nM.
For `COc1cc(-c2cnc3cc(-c4cnn(C5CN(CC#N)C5)c4)ccn23)cc(OC)c1C(=O)NCC(F)(F)F` [compound 265, 4-[7-[1-[1-(cyanomethyl)azetidin-3-yl]pyrazol-4-yl]imidazo[1,2-a]pyridin-3-yl]-2,6-dimethoxy-N-(2,2,2-trifluoroethyl)benzamide], the “IL-10 FCmax median” value in experiment [1] was “++ (>1.5-4.5)”. For the same molecule, the IC50 against SIK2 [2], at SIK3 [3] and on SIK1 [4] was 0.01 to 10 nM in each case. The EC50 in experiment [5] was in the range of 0.1 to 100 nM.
With `COc1cc(-c2cnc3cc(-c4cnn(C5CN(CCC#N)C5)c4)ccn23)cc(OC)c1C(=O)NCC(F)(F)F` [Cpd 264, 4-[7-[1-[1-(2-cyanoethyl)azetidin-3-yl]pyrazol-4-yl]imidazo[1,2-a]pyridin-3-yl]-2,6-dimethoxy-N-(2,2,2-trifluoroethyl)benzamide], in experiment [1], the “IL-10 FCmax median” value is given as “++ (>1.5-4.5)”. The IC50 on SIK2 [2], against SIK3 [3] and against SIK1 [4] was 0.01 to 10 nM throughout. Moreover, in experiment [5], the EC50 was in the range of 0.1 to 100 nM.

Values taken from US12065443B2, “Compounds and pharmaceutical compositions thereof for the treatment of diseases” (priority 2017, dated 2024).
